Measured values taken from patent US20130273519A1, “COMPOSITION FOR TREATING BLOOD AND SET OF DIAGNOSTIC KIT COMPRISING THE SAME TO DETECT AUTOIMMUNE DISEASE” (priority 2012, published 2013).

System: level of expression of MMP-3 in blood
Experiment: Level of expression of MMP-3 in blood stimulated with PMA, measured using flow cytometer (FACS)
Format: cell-based, human
Set-up: unit not given here
Details: for level of expression of MMP-3, After: 500 ul whole blood, 90 ng PMA, 3 h + 6 h Brefeldin A; for level of expression of MMP-3, Total (After minus Before): PMA stimulation
Procedure: In order to implement the method of stimulating blood and to check the clinical value of the kit of the present invention, the level of expression of MMP-3 was checked using a flow cytometer. 3 ml of blood was collected to sodium citrate tube (BD vacutainer), and CBC (complete blood count) was measured immediately upon pumping-up the blood. Then, the blood was stimulated with the chemical substance of the present invention. 500 ul of whole blood was put into the 24 wells plate for cell culture, and 90 ng of PMA was added into the plate. Then, the cell culture plate was put into a 5% CO2 incubator, and was kept at 37 for 3 hours. After 3 hours, 200 ug/ml of Brefeldin A(SIGMA) was added into the plate, and placed at 37 for 6 hours.
After lapse of the total 9 hours, 50 ul of blood was extracted, and put into 2 tubes respectively. Then, 10 ul of CD45-PC5 10 and 10 ul of CD14-FITC were respectively added to the 2 tubes, mixed with each other, and placed in a darkroom at room temperature for 15 min. Then, 100 ul of RBC lysis buffer (Bechman coulter) was added to the 2 tubes respectively, and mixed with each other using a vortex. The mixtures were placed in a darkroom at room temperature for 15 min. Then, 4 ml of PBS was added to the 2 tubes respectively, and centrifuged to remove the supernatant. Here, the supernatant was not removed using pipette, but poured out to minimize the loss of cells. 100 ul of 0.1% saponin was added to the remaining cells, and stirred smoothly using pipette. Then, the mixture was placed in a darkroom at room temperature for 5min. Then, 10 ul of IgG1-PE was added to the control group and 10 ul of MMP-3-PE was added to the comparative group, and then the both groups were placed in a darkroom for 15 min. After 15 min, 4 ml of PBS was added to the each group, and centrifuged under the condition of 2000 g, 5 min and 4 to remove the supernatant. Then, 500 ul of fresh PBS was added to the each group, and fluorescence-activated cell sorting (FACS) was performed.

[1] = RA (R), patient with reduced activity after being treated with drugs
[2] = RA (S), patient with severe rheumatoid arthritis
[3] = RA (mi), patient with mild rheumatoid arthritis

## CCCCCCCCCCCCCC(=O)O[C@@H]1[C@@H](C)[C@@]2(O)[C@@H](C=C(CO)C[C@]3(O)C(=O)C(C)=C[C@@H]23)[C@@H]2C(C)(C)[C@]12OC(C)=O [PMA, Phorbol 12-myristate 13-acetate]
Normal1 (normal person)
  level of expression of MMP-3, After: 39.23
  level of expression of MMP-3, Total (After minus Before): 12.56
Normal2 (normal person)
  level of expression of MMP-3, After: 53.05
  level of expression of MMP-3, Total (After minus Before): 11.49
[1]
  level of expression of MMP-3, After: 48.35
  level of expression of MMP-3, Total (After minus Before): 14.86
[2]
  level of expression of MMP-3, After: 68.97
  level of expression of MMP-3, Total (After minus Before): 43.64
[3]
  level of expression of MMP-3, After: 63.65
  level of expression of MMP-3, Total (After minus Before): 27.52
RA (s)
  level of expression of MMP-3, After: 64.53
  level of expression of MMP-3, Total (After minus Before): 26.12
